Measured values from US10548993B2, “Metal-encapsulated carbonaceous dots” (UNIVERSITY OF GEORGIA RESEARCH FOUNDATION, INC., priority 2014, dated 2020).

Experiments:
[1] = comparison value for Gd-DTPA, literature references; cited from earlier work
[2] = test system: U87MG cells; test: Cytotoxicity study, MTT assay with 2.5 mM Ca(II); type: cell-based, human; settings: 24 h
Experimental: Gd@C-dots were also subjected to a cytotoxicity study with U87MG cells using standard MTT assays. The cells were first seeded in 96-well plates (1×10^4 cells per well). After 24 h, Gd@C-dots at different concentrations were added. Incubation was carried out for 24 h with or without 2.5 mM CaCl2. To assess the particles' stability against transmetallation, which is the major cause of toxicity for conventional Gd contrast agents (Corot et al., J. Magn. Reson. Imaging 1998, 8(3):695-702), 2.5 mM Ca(II) was added into the incubation medium.

## CNC[C@H](O)[C@@H](O)[C@H](O)[C@H](O)CO.CNC[C@H](O)[C@@H](O)[C@H](O)[C@H](O)CO.O=C([O-])CN(CCN(CC(=O)[O-])CC(=O)O)CCN(CC(=O)[O-])CC(=O)O.[Gd+3] [Gd-DTPA, gadopentetic acid]
[1]
  r1 relaxivity: 3.10 mM⁻¹ s⁻¹
[2]
  IC50 (cell death): 33.1 µg/mL
